What was measured:
Assay type in all cases: in vivo, Festuca arundinacea
[1] = tested on: Tar Heel tall fescue; test: Glyphosate tolerance field trial, turf seeded fall 1998 near Hubbard, Oreg.; details: for Herbicide damage: scale 1-9, 9=no glyphosate damage; for Summer Stress: scale 1-9; for Turf quality (no herbicide): scale 1-9, 9=ideal quality
Protocol: (§1) The following tables show examples of field trials in which the glyphosate resistance characteristics of the Tomahawk RT variety were examined and compared to currently used tall fescue grass varieties. Grasses were seeded in the fall of 1998 near Hubbard, Oreg. and rated between November 1998 and September 1999.
(§2) 2, 1999. The score ratings are based on a scale of 1 to 9. For herbicide damage: 9 =no glyphosate damage; 8-7=10-20% yellowing; 6-5=30-40% yellowing with minor growth retardation; 4-3=50-60% yellowing with growth retardation; 2-1=70-90% yellowing with dead turf. For turf quality: 9=best turf quality, 0=dead turf.
(§3) Grasses were sprayed with 1 pint per acre glyphosate on Nov. 19, 1998 and ½ pint (8 oz.) per acre on Mar. 2, 1999. The effect of the herbicide application on turf quality and on glyphosate damage is shown, using a scale of 1 to 9 as described for Table 3 (9: ideal quality; no disease; no glyphosate damage). In addition, the percent of damage due to herbicide application (which indicates yellowing, stunting, and death) is shown.

[2] = tested on: Wolfpack tall fescue; test: as above; details: for Herbicide damage: scale 1-9, 9=no glyphosate damage; for Summer Stress: scale 1-9; for Turf quality (no herbicide): scale 1-9, 9=ideal quality
Protocol: as §1, §2, §3

[3] = tested on: Tomahawk E tall fescue; test: as above; details: for Herbicide damage: scale 1-9, 9=no glyphosate damage; for Summer Stress: scale 1-9; for Turf quality (no herbicide): scale 1-9, 9=ideal quality
Protocol: as §1, §2, §3

[4] = tested on: Pure Gold tall fescue; test: as above; details: for Herbicide damage: scale 1-9, 9=no glyphosate damage; for Summer Stress: scale 1-9; for Turf quality (no herbicide): scale 1-9, 9=ideal quality
Protocol: as §1, §2, §3

[5] = tested on: 5HU tall fescue; test: as above; details: for Herbicide damage: scale 1-9, 9=no glyphosate damage; for Summer Stress: scale 1-9; for Turf quality (no herbicide): scale 1-9, 9=ideal quality
Protocol: as §1, §2, §3

[6] = tested on: Tomahawk RT tall fescue; test: as above; details: for Herbicide damage: scale 1-9, 9=no glyphosate damage; for Summer Stress: scale 1-9; for Turf quality (no herbicide): scale 1-9, 9=ideal quality
Protocol: as §1, §2, §3

[7] = tested on: Kentucky 31 tall fescue; test: as above; details: for Herbicide damage: scale 1-9, 9=no glyphosate damage; for Summer Stress: scale 1-9; for Turf quality (no herbicide): scale 1-9, 9=ideal quality
Protocol: as §1, §2, §3

[8] = tested on: cloned survivors from Coronado, Apache II and Tomahawk; test: Glyphosate screening of vegetative clones in cell pack planting flats; details: 1 quart per acre glyphosate with WA-100, clones in cell pack planting flats, sprayed 1 month after cloning
[9] = tested on: seedlings, progenies of the 23 5RU clones; test: Greenhouse glyphosate screening of seedlings; details: one quart per acre, sprayed at the three to four leaf stage, 74 out of 150
[10] = 1/2 pint (8 oz.) per acre sprayed Mar. 2, 1999, rated 1 April
[11] = 1/2 pint (8 oz.) per acre sprayed Mar. 2, 1999, rated 20 April
[12] = 1/2 pint (8 oz.) per acre sprayed Mar. 2, 1999, rated 24 Sept
[13] = 1 pint per acre Nov. 19, 1998 and 1/2 pint per acre Mar. 2, 1999, rated 1 Apr
[14] = 1 pint per acre Nov. 19, 1998 and 1/2 pint per acre Mar. 2, 1999, rated 1 May
[15] = 1 pint per acre Nov. 19, 1998 and 1/2 pint per acre Mar. 2, 1999, rated 20 Apr
[16] = 1 pint per acre Nov. 19, 1998 and 1/2 pint per acre Mar. 2, 1999, rated 24 Sept
[17] = 1 pint per acre sprayed Nov. 19, 1998, rated 2 Mar
[18] = 1 pint per acre sprayed Nov. 19, 1998, rated 26 Dec, % damage (yellowing, stunting, death)
[19] = 1 pint per acre sprayed Nov. 19, 1998, rated 26 Jan
[20] = 1/2 pint per acre of glyphosate herbicide (41% w/v glyphosate), field, January through September 1999
[21] = 1 pint per acre of agricultural formulation (about 0.056 g per square meter glyphosate)

SMILES: O=C(O)CNCP(=O)(O)O [Glyphosate, N-(phosphonomethyl) glycine]
- Herbicide damage [1, 10]: 5.0
- Herbicide damage [1, 11]: 5.0
- Summer Stress [1, 12]: 7.0
- Herbicide damage % [1, 13]: 40.0%
- Turf quality (no herbicide) [1, 13]: 3.0
- Turf quality (no herbicide) [1, 14]: 5.0
- Turf quality (no herbicide) [1, 15]: 4.0
- Summer Stress [1, 16]: 7.5
- Herbicide damage [1, 17]: 3.3
- Herbicide damage % [1, 18]: 76.3%
- Turf quality (no herbicide) [1, 19]: 2.0
- Herbicide damage [1, 19]: 2.3
- Herbicide damage [2, 10]: 4.0
- Herbicide damage [2, 11]: 2.8
- Summer Stress [2, 12]: 5.5
- Herbicide damage % [2, 13]: 41.3%
- Turf quality (no herbicide) [2, 13]: 3.3
- Turf quality (no herbicide) [2, 14]: 4.8
- Turf quality (no herbicide) [2, 15]: 4.5
- Summer Stress [2, 16]: 7.8
- Herbicide damage [2, 17]: 3.3
- Herbicide damage % [2, 18]: 52.5%
- Turf quality (no herbicide) [2, 19]: 3.5
- Herbicide damage [2, 19]: 3.3
- Herbicide damage [3, 10]: 4.3
- Herbicide damage [3, 11]: 3.8
- Summer Stress [3, 12]: 6.3
- Herbicide damage % [3, 13]: 36.3%
- Turf quality (no herbicide) [3, 13]: 2.8
- Turf quality (no herbicide) [3, 14]: 4.5
- Turf quality (no herbicide) [3, 15]: 3.5
- Summer Stress [3, 16]: 7.3
- Herbicide damage [3, 17]: 2.3
- Herbicide damage % [3, 18]: 65.0%
- Turf quality (no herbicide) [3, 19]: 2.8
- Herbicide damage [3, 19]: 2.5
- Herbicide damage [4, 10]: 5.3
- Herbicide damage [4, 11]: 5.5
- Summer Stress [4, 12]: 5.3
- Herbicide damage % [4, 13]: 41.3%
- Turf quality (no herbicide) [4, 13]: 3.8
- Turf quality (no herbicide) [4, 14]: 4.8
- Turf quality (no herbicide) [4, 15]: 3.8
- Summer Stress [4, 16]: 7.3
- Herbicide damage [4, 17]: 3.3
- Herbicide damage % [4, 18]: 33.8%
- Turf quality (no herbicide) [4, 19]: 3.5
- Herbicide damage [4, 19]: 4.0
- Herbicide damage [5, 10]: 5.3
- Herbicide damage [5, 11]: 4.5
- Summer Stress [5, 12]: 6.3
- Herbicide damage % [5, 13]: 33.8%
- Turf quality (no herbicide) [5, 13]: 2.8
- Turf quality (no herbicide) [5, 14]: 4.8
- Turf quality (no herbicide) [5, 15]: 3.8
- Summer Stress [5, 16]: 7.0
- Herbicide damage [5, 17]: 3.5
- Herbicide damage % [5, 18]: 45.0%
- Turf quality (no herbicide) [5, 19]: 3.3
- Herbicide damage [5, 19]: 3.8
- Herbicide damage [6, 10]: 7.5
- Herbicide damage [6, 11]: 7.3
- Summer Stress [6, 12]: 6.5
- reduction in growth rate [6, 20]: no substantial reduction in growth rate
- yellowing of the grass [6, 20]: only minor amounts of yellowing
- Herbicide damage % [6, 13]: 72.5%
- Turf quality (no herbicide) [6, 13]: 6.3
- Turf quality (no herbicide) [6, 14]: 6.5
- Turf quality (no herbicide) [6, 15]: 6.0
- Summer Stress [6, 16]: 7.8
- recovery of grass plants not killed [6, 21]: complete recovery
- yellowing and retardation of plant growth [6, 21]: more yellowing of the grasses and a substantial retardation of plant growth
- Herbicide damage [6, 17]: 5.3
- Herbicide damage % [6, 18]: 21.3%
- Turf quality (no herbicide) [6, 19]: 4.3
- Herbicide damage [6, 19]: 5.3
- sensitivity to glyphosate herbicide applications ([6]; ambient temperature of the plants below about 32° C.): more sensitive
- sensitivity to glyphosate ([6]; applied during the seedling stage, within the first 60-days of planting): more sensitive
- tolerated application of agricultural formulations of glyphosate herbicide ([6]; depending on time of year, age of the plants and environmental conditions): up to 1 pint per acre
- Herbicide damage [7, 10]: 3.3
- Herbicide damage [7, 11]: 3.8
- Summer Stress [7, 12]: 4.5
- Herbicide damage % [7, 13]: 33.8%
- Turf quality (no herbicide) [7, 13]: 2.0
- Turf quality (no herbicide) [7, 14]: 4.0
- Turf quality (no herbicide) [7, 15]: 3.3
- Summer Stress [7, 16]: 5.8
- Herbicide damage [7, 17]: 2.8
- Herbicide damage % [7, 18]: 75.0%
- Turf quality (no herbicide) [7, 19]: 2.0
- Herbicide damage [7, 19]: 2.0
- survivors [8]: 5%
- seedlings survived [9]: 50%
